Among the data in patent publication US7960590B2, “Method for producing ethyleneamines from untreated AAN” (BASF SE, priority 2007, dated 2011) are dissolved concentration and solubility values, retold here.

The nature of this data set: Solubility of IDAN in THF and in AAN.

Take `N#CCNCC#N` [IDAN, iminodiacetonitrile]: the dissolved concentration by setting is: (in AAN at 40° C.) roughly 52%; (in AAN, room temperature, up to) roughly 35%. Also, for the setting “in THF at room temperature”, the solubility is recorded as roughly 10%.
